Measured values from EP0324626A1, “1,4-Dihydropyridine derivatives” (priority 1988, dated 1989).

Assay: Acute toxicity test (limit test and range finding test), oral administration
Conditions: both, ICR, mouse, in vivo
Protocol: The limit test and the range finding test were carried out using the SPF mice, as stated below, and LD₅₀ values were determined.
The dead mice are weighed and organ examinations are carried out for macroscopical lesions. Also, on the last day of the test all surviving mice are sacrificed and used for examinations.
If the mortality is more than 50% in the limit test, the range finding test is carried out for 14 days with three doses groups including the putative LD₅₀ value. The method is same as the foregoing limit test.

Row | SMILES | LD50 at 14 days [mg/kg]
1 | C=CC(C)OC(=O)C1=C(C)NC(C)=C(C(=O)OCCOC)C1c1cccc([N+](=O)[O-])c1 (stereo not drawn) [Example 3, 3-(1-methyl-2-propenyl) 5-(2-methoxyethyl) 2,6-dimethyl-4-(3′-nitrophenyl)-1,4-dihydropyridine-3,5-dicarboxylate] | > 5000
2 | COC(=O)C1=C(C)NC(C)=C(C(=O)OCCN(C)Cc2ccccc2)C1c1cccc([N+](=O)[O-])c1 (stereo not drawn) [Nicardipine, reference compound] | < 700
3 | C=C(C)COC(=O)C1=C(C)NC(C)=C(C(=O)OC)C1c1cccc([N+](=O)[O-])c1 (stereo not drawn) [Example 12, 3-methyl 5-(2-methyl-2-propenyl) 2,6-dimethyl-4-(3′-nitrophenyl)-1,4-dihydropyridine-3,5-dicarboxylate] | 1000
4 | C=CC(C)OC(=O)C1=C(C)NC(C)=C(C(=O)OCCN(C)Cc2ccccc2)C1c1cccc([N+](=O)[O-])c1 (stereo not drawn) [Example 1, 3-β-(N-benzyl-N-methylamino)ethyl 5-(1-methyl-2-propenyl) 2,6-dimethyl-4-(3′-nitrophenyl)-1,4-dihydropyridine-3,5-dicarboxylate] | > 1000
5 | C=CCOC(=O)C1=C(C)NC(C)=C(C(=O)OCC(=C)C)C1c1cccc([N+](=O)[O-])c1 (stereo not drawn) [Example 13, 3-(2-methyl-2-propenyl) 5-allyl 2,6-dimethyl-4-(3′-nitrophenyl)-1,4-dihydropyridine-3,5-dicarboxylate] | > 5000
6 | C=C(C)COC(=O)C1=C(C)NC(C)=C(C(=O)OCCN(C)Cc2ccccc2)C1c1cccc([N+](=O)[O-])c1 (stereo not drawn) [Example 8, 3-β-(N-benzyl-N-methylamino)ethyl 5-(2-methyl-2-propenyl) 2,6-dimethyl-4-(3′-nitrophenyl)-1,4-dihydropyridine-3,5-dicarboxylate] | > 1000
